Results: patent publication US10351548B2, “2-oxo-1,2-dihydropyridine-3-carboxamide compounds and their use as inhibitors of PDK1” (INTERNATIONAL SOCIETY FOR DRUG DEVELOPMENT S.R.L., priority 2015, dated 2019)
Read-outs that look alike come from different tables or passages of the source.

Assays:
Assay type in all cases: cell-based, human
[1] = system: U87MG cells; experiment: U87MG cell proliferation, MTS assay; settings: Homo sapiens, U-87 MG, 72 h, MTS assay
Method: (§1) The U87MG cell line was obtained from the National Institute for Cancer Research of Genoa (Italy) and cultured in DMEM 10% FBS and 2 mM glutamine. To isolate GSCs, approximately 2.0×10^6 cells were suspended in 1 mL of a defined serum-free Neural Stem Cell (NSC) medium (Daniele, S., et al., Modulation of A1 and A2B adenosine receptor activity: a new strategy to sensitise glioblastoma stem cells to chemotherapy. Cell death & disease, 2014. 5(11): p. e1539). After 3-4 days of culture, the neurospheres were collected, suspended in NSC medium, dissociated into single cells, and plated for the assays. For the long-term treatment of cells, NSC or complete medium containing drugs was replaced every two to three days.
(§2) The human U87MG cells or GSCs were seeded at a density of 3×10^3 cells/well. After 24 h, the cells were treated from one to seven days with fresh growth medium containing different concentrations of SA16, SA23 or IB35. Following the treatment period, cell proliferation was determined using the MTS assay according to manufacturer's instruction. The absorbance of formazan at […] was measured in a colorimetric assay with an automated plate reader (Victor Wallac 2, Perkin Elmer). The results were calculated by subtracting the mean background from the values obtained from each evaluation and were expressed as the percentage of the control (untreated cells). Sigmoid dose-response curve was generated, from which the IC50 values were derived.
As representative GBM cell line, the above U87MG cells were used; this human cell line resulted an appropriate model to study the effects of PDK1 inhibition, because it is deficient for the tumour suppressor phosphatase and tensin homologue (PTEN), a negative regulator of the PI3K/AKT pathway (Wang, S. I., et al., Somatic mutations of PTEN in glioblastoma multiforme. Cancer research, 1997. 57(19): p. 4183-4186). To examine the effects of SA16, SA23 and IB35 on GBM cell growth/survival, U87MG cells were incubated with different concentrations of the new compounds (1 nM-10 μM) for 24 and 72 h. Specifically, U87MG cells were treated in complete medium with different concentrations of SA16, SA23 or IB35 (1 nM-10 μM) for 24 h (A) or 72 h (B). At the end of treatment, cell proliferation was measured using the MTS assay. The data are expressed as a percentage with respect to that of untreated cells (control), which was set to 100%, and are the mean values±SEM of three independent experiments, each performed in duplicate. The significance of the differences reported in FIGS. 1 and 2 was determined with a one-way ANOVA with Bonferroni post-test (* p<0.05, **p<0.01, *** p<0.001 vs. control cells).

[2] = system: GSCs isolated from U87MG cells; experiment: GSC proliferation, MTS assay; settings: Homo sapiens, U-87 MG, 168 h; seven days of treatment, MTS assay
Method: as §1, §2
The inhibition of PDK1 has been reported as potentially effective therapeutic approach to reduce self-renewal and propagation of GSCs (Signore, M., et al., Combined PDK1 and CHK1 inhibition is required to kill glioblastoma stem-like cells in vitro and in vivo. Cell death & disease, 2014. 5(5): p. e1223). On this basis, the effects of SA16, SA23 and IB35 on GSCs, isolated from U87MG cells as previously reported, were evaluated (Daniele, S., et al., Modulation of A1 and A28 adenosine receptor activity: a new strategy to sensitise glioblastoma stem cells to chemotherapy. Cell death & disease, 2014. 5(11): p. e1539). U87MG-derived GSCs were incubated with the indicated concentrations of IB35, SA23 or SA16 for four days (FIG. 8) or seven days (FIG. 9). At the end of the treatment periods, cell proliferation was measured using the MTS assay. The data were expressed as a percentage with respect to that of untreated cells (control), which was set to 100%, and are the mean values±SEM of three independent experiments, each performed in duplicate. IC50 values after seven days of treatment were calculated from sigmoid dose-response curve (FIG. 9). The significance of the differences was determined with a one-way ANOVA with Bonferroni post-test (** p<0.01, *** p<0.001 vs. control).

[3] = system: U87MG cells; experiment: Annexin V and 7-AAD staining in U87MG cells (apoptosis); settings: 10 μM, 72 h
Method: Dual staining with Annexin V coniugated to fluorescein-isothiocyanate (FITC) and 7-amino-actinomysin (7-AAD) was performed using the commercially available kit (Muse Annexin V and Dead Cell Kit; Merck KGaA, Darmstadt, Germany). U87MG cells or GSCs were treated with DMSO (control), SA16, SA23 or IB35 for 72 h or seven days, respectively. At the end of the treatment periods, the percentages of living, apoptotic and dead cells were acquired and analysed by Muse™ Cell Analyzer as previously described (Daniele, S., et al., Combined inhibition of AKT/mTOR and MDM2 enhances Glioblastoma Multiforme cell apoptosis and differentiation of cancer stem cells. Sci. Rep., 2015. 5.).
It was then investigated whether the reduction in cell proliferation elicited by the PDK1 inhibitors could be associated with apoptosis. U87MG cells were treated for 72 h with DMSO (control), or 10 μM SA16, SA23 or IB35. At the end of the treatment period, the cells were collected, and the level of phosphatidylserine externalisation was evaluated using the Annexin V-staining protocol, as described above (FIG. 3). In FIG. 4 the data are expressed as the percentage of apoptotic cells (the data for the early-stage apoptotic cells shown in white, and the data for the late-stage apoptotic/necrotic cells shown in grey) versus the total number of cells. The data shown represented the mean±SEM of three different experiments. The significance of the differences was determined with a one-way ANOVA with Bonferroni post-test (*** p<0.001 vs. control).

[4] = system: AKT phosphorylation at Thr308 in U87MG cells; experiment: PDK1 activity in U87MG cells, (T308)AKT phosphorylation ELISA
Method: (§3) U87MG cells were cultured in 96-well microplates (5.000 cells/well), and treated for different times with 10 μM SA16, SA23 or IB35. At the end of the treatment period, the GSCs were centrifuged at 500×g for 3 minutes; cells were washed twice using fresh saline, and rapidly fixed with 4% (for adherent U87MG cells) or 8% (for suspension GSCs) formaldehyde to preserve activation of specific protein modification. The activity of PDK1 was assessed measuring the levels of phosphorylated AKT on Thr308, using a specific primary antibodies. The subsequent incubation with a secondary HRP-conjugated antibody and the developing solution allowed the colorimetric quantification of the levels of phosphorylated protein. The relative number of cells in each well was then determined using the Crystal-Violet assay. The results were calculated by subtracting the mean background value from the values obtained under each test condition: values were normalised to the number of cells in each well and were expressed as the percentages of the control (untreated cells) values.
280(4): p. 1107-1115). […] At the end of the treatment periods, the levels of (T308)AKT phosphorylation was evaluated using an ELISA kit, as described above. The data reported in FIG. 5 were expressed as the percentage of phosphorylated (T308)AKT relative to those of untreated cells (control), which were set at 100%, and were the mean values±SEM of three independent experiments performed in triplicate.

[5] = system: AKT phosphorylation at Thr308 in GSCs; experiment: PDK1 activity in GSCs, (T308)AKT phosphorylation ELISA
Method: as §3
The effects of the new compounds on PDK1 activity were investigated by ELISA assays also in GSCs. U87MG-derived CSCs were treated for the indicated times (0-120 min) with NSC medium containing DMSO (control), or 10 μM IIB35, SA23 or SA16. At the end of the treatment periods, the levels of AKT phosphorylation on Thr308 were evaluated using an ELISA assay, as above described. The data were expressed as the percentage of phosphorylated AKT relative to those of untreated cells (control), which were set at 100%, and were the mean values±SEM of three independent experiments performed in triplicate. The data are represented in FIG. 12. The significance of differences was performed using one-way ANOVA with Bonferroni post-test (* p<0.05, ** p<0.01, *** p<0.001 vs. control).

IC50 ([1]; read-out: IC50 U87MG): 2.05 ± 0.19 µM | IC50 ([1]; read-out: IC50 U87MG cell proliferation): 2.05 ± 0.19 µM | IC50 [2]: 5.47 ± 0.1 nM
Compound: O=C1Nc2ccc(NC(=O)[C@H](NC(=O)c3cccn(Cc4ccc(F)c(F)c4)c3=O)c3ccccc3)cc2/C1=C/c1cnc[nH]1 [SA16, (Z)—(R)—N-(2-((3-((1H-imidazol-5-yl)methylene)-2-oxoindolin-5-yl)amino)-2-oxo-1-phenylethyl)-1-(3,4-difluorobenzyl)-2-oxo-1,2-dihydropyridine-3-carboxamide]
phosphatidylserine externalization (early and late apoptosis/death) [3]: significant phosphatidylserine externalization | inhibition at 10 µM ([4]; Homo sapiens, U-87 MG, U87MG cells, read-out: peak of inhibition (percentage of PDK1 inhibition)): 33.3 ± 4.5% | inhibition of AKT phosphorylation at Thr308 ([4]; U87MG, 10 μM, 0-120 min): biphasic kinetic | inhibition of AKT phosphorylation at Thr308 ([5]; 10 μM, 0-120 min): biphasic kinetic | inhibition at 10 µM ([5]; Homo sapiens, read-out: peak of inhibition (percentage of PDK1 inhibition)): 74.8 ± 3%
